Measured values reported in patent publication US11252963B2, “Pesticidally active pyrazole derivatives” (SYNGENTA PARTICIPATIONS AG, priority 2017, dated 2022).
Read-outs that look alike come from different tables or passages of the source.

Key:
Format in all cases: in vivo
[1] = test system: Plutella xylostella (Diamond Back Moth); assay: Plutella xylostella (Diamond Back Moth): feeding/contact activity; conditions: 120 h
Experimental: Plutella xylostella (Diamond Back Moth): Feeding/Contact Activity
24-well microtiter plates with artificial diet were treated with aqueous test solutions prepared from 10′000 ppm DMSO stock solutions by pipetting. After drying, the plates were infested with L2 larvae (10 to 15 per well). The samples were assessed for mortality 5 days after infestation.

[2] = test system: Thrips tabaci (Onion Thrips); assay: Thrips tabaci (Onion Thrips): feeding/contact activity; conditions: foliar, 144 h
Experimental: Thrips tabaci (Onion Thrips): Feeding/Contact Activity
Sunflower leaf discs were placed on agar in 24-well microtiter plates and sprayed with aqueous test solutions prepared from 10′000 ppm DMSO stock solutions. After drying the leaf discs were infested with a thrips population of mixed ages. The samples were assessed for mortality 6 days after infestation.

[3] = test system: Myzus persicae (Green Peach Aphid); assay: Myzus persicae (Green Peach Aphid): feeding/contact activity; conditions: foliar, 144 h
Experimental: Myzus persicae (Green Peach Aphid): Feeding/Contact Activity
Sunflower leaf discs were placed onto agar in a 24-well microtiter plate and sprayed with aqueous test solutions prepared from 10,000 ppm DMSO stock solutions. After drying, the leaf discs were infested with an aphid population of mixed ages. The samples were assessed for mortality 6 days after infestation.

[4] = test system: Euschistus heros (Neotropical Brown Stink Bug); assay: Euschistus heros (Neotropical Brown Stink Bug): feeding/contact activity; conditions: 120 h
Experimental: Euschistus heros (Neotropical Brown Stink Bug): Feeding/Contact Activity
Soybean leaves on agar in 24-well microtiter plates were sprayed with aqueous test solutions prepared from 10,000 ppm DMSO stock solutions. After drying the leaves were infested with N2 nymphs. The samples were assessed for mortality 5 days after infestation.

[5] = test system: Diabrotica balteata (Corn root worm); assay: Diabrotica balteata (Corn root worm) mortality test on sprayed maize sprouts; conditions: 96 h
Experimental: Diabrotica balteata (Corn root worm):
Maize sprouts placed onto an agar layer in 24-well microtiter plates were treated with aqueous test solutions prepared from 10′000 ppm DMSO stock solutions by spraying. After drying, the plates were infested with L2 larvae (6 to 10 per well). The samples were assessed for mortality 4 days after infestation.

[6] = test system: Tetranychus urticae (Two-Spotted Spider Mite); assay: Tetranychus urticae (Two-Spotted Spider Mite): feeding/contact activity; conditions: foliar, 192 h, read-out: mortality on mixed population (mobile stages)
Experimental: Tetranychus urticae (Two-Spotted Spider Mite): Feeding/Contact Activity
Bean leaf discs on agar in 24-well microtiter plates were sprayed with aqueous test solutions prepared from 10′000 ppm DMSO stock solutions. After drying the leaf discs were infested with a mite population of mixed ages. The samples were assessed for mortality on mixed population (mobile stages) 8 days after infestation.

[7] = test system: Spodoptera littoralis (Egyptian Cotton Leaf Worm); assay: Spodoptera littoralis (Egyptian Cotton Leaf Worm): feeding/contact activity; conditions: foliar, 72 h
Experimental: Spodoptera littoralis (Egyptian Cotton Leaf Worm): Feeding/Contact Activity
Cotton leaf discs were placed onto agar in 24-well microtiter plates and sprayed with aqueous test solutions prepared from 10′000 ppm DMSO stock solutions. After drying the leaf discs were infested with five L1 larvae. The samples were assessed for mortality 3 days after infestation.

[8] = application rate 200 ppm, artificial diet treated by pipetting, L2 larvae, assessed 5 days after infestation, read-out: mortality
[9] = application rate 200 ppm, sunflower leaf discs sprayed, thrips population of mixed ages, assessed 6 days after infestation, read-out: mortality
[10] = application rate 200 ppm, sunflower leaf discs sprayed, aphid population of mixed ages, assessed 6 days after infestation, read-out: mortality
[11] = application rate 200 ppm, soybean leaves sprayed, N2 nymphs, assessed 5 days after infestation, read-out: mortality
[12] = application rate 200 ppm, maize sprouts sprayed, L2 larvae, assessed 4 days after infestation, read-out: mortality
[13] = application rate 200 ppm, bean leaf discs sprayed, mite population of mixed ages, assessed 8 days after infestation
[14] = application rate 200 ppm, cotton leaf discs sprayed, L1 larvae, assessed 3 days after infestation, read-out: mortality

Measured: mortality at 200 ppm

CCOCN(C(=O)c1cc(-c2cnn(-c3c(OC(F)F)c(C(F)(F)C(F)(F)F)nn3C)c2)cnc1Cl)C1(C#N)CC1 [Compound 14, 2-chloro-N-(1-cyanocyclopropyl)-5-[1-[4-(difluoromethoxy)-2-methyl-5-(1,1,2,2,2-pentafluoroethyl)pyrazol-3-yl]pyrazol-4-yl]-N-(ethoxymethyl)pyridine-3-carboxamide]
≥ 80%: [1]; [8] | [2]; [9] | [3]; [10] | [4]; [11] | [5]; [12] | [6]; [13] | [7]; [14]

CCOC(=O)N(C(=O)c1cc(-c2cnn(-c3c(OC(F)F)c(C(F)(F)C(F)(F)F)nn3C)c2)cnc1Cl)C1(C#N)CC1 [Compound 16, ethyl N-[2-chloro-5-[1-[4-(difluoromethoxy)-2-methyl-5-(1,1,2,2,2-pentafluoroethyl)pyrazol-3-yl]pyrazol-4-yl]pyridine-3-carbonyl]-N-(1-cyanocyclopropyl)carbamate]
≥ 80%: [1] | [2] | [3] | [4]; in Glycine max | [5] | [6] | [7]

COC(=O)N(C(=O)c1cc(-c2cnn(-c3c(OC(F)F)c(C(F)(F)C(F)(F)F)nn3C)c2)cnc1Cl)C1(C#N)CC1 [Compound 17, methyl N-[2-chloro-5-[1-[4-(difluoromethoxy)-2-methyl-5-(1,1,2,2,2-pentafluoroethyl)pyrazol-3-yl]pyrazol-4-yl]pyridine-3-carbonyl]-N-(1-cyanocyclopropyl)carbamate]
≥ 80%: [1] | [2] | [3] | [4]; in Glycine max | [5] | [6] | [7]

C#CCN(C(=O)c1cc(-c2cnn(-c3c(OC(F)F)c(C(F)(F)C(F)(F)F)nn3C)c2)cnc1Cl)C1(C#N)CC1 [Compound 21, 2-chloro-N-(1-cyanocyclopropyl)-5-[1-[4-(difluoromethoxy)-2-methyl-5-(1,1,2,2,2-pentafluoroethyl)pyrazol-3-yl]pyrazol-4-yl]-N-prop-2-ynyl-pyridine-3-carboxamide]
≥ 80%: [1]; [8] | [2]; [9] | [3]; [10] | [4]; [11] | [5]; [12] | [6]; [13] | [7]; [14]

Cn1nc(C(F)(F)C(F)(F)F)c(OC(F)F)c1-n1cc(-c2ccc(Cl)c(C(=O)N(CC#N)C3(C#N)CC3)c2)cn1 [Compound 3, 2-chloro-N-(1-cyanocyclopropyl)-N-(cyanomethyl)-5-[1-[4-(difluoromethoxy)-2-methyl-5-(1,1,2,2,2-pentafluoroethyl)pyrazol-3-yl]pyrazol-4-yl]benzamide]
≥ 80%: [1]; [8] | [2]; [9] | [3]; [10] | [4]; [11] | [5]; [12] | [6]; [13] | [7]; [14]

CC(=O)N(C(=O)c1cc(-c2cnn(-c3c(OC(F)F)c(C(F)(F)C(F)(F)F)nn3C)c2)cnc1Cl)C1(C#N)CC1 [Compound 22, N-acetyl-2-chloro-N-(1-cyanocyclopropyl)-5-[1-[4-(difluoromethoxy)-2-methyl-5-(1,1,2,2,2-pentafluoroethyl)pyrazol-3-yl]pyrazol-4-yl]pyridine-3-carboxamide]
≥ 80%: [1]; [8] | [2]; [9] | [3]; [10] | [4]; [11] | [5]; [12] | [6]; [13] | [7]; [14]

CC(C)C(=O)N(C(=O)c1cc(-c2cnn(-c3c(OC(F)F)c(C(F)(F)C(F)(F)F)nn3C)c2)ccc1Cl)C1(C#N)CC1 [Compound 12, 2-chloro-N-(1-cyanocyclopropyl)-5-[1-[4-(difluoromethoxy)-2-methyl-5-(1,1,2,2,2-pentafluoroethyl)pyrazol-3-yl]pyrazol-4-yl]-N-(2-methylpropanoyl)benzamide]
≥ 80%: [1]; [8] | [3]; [10] | [4]; [11] | [5]; [12] | [6]; [13] | [7]; [14]

CC(C)CN(C(=O)c1cc(-c2cnn(-c3c(OC(F)F)c(C(F)(F)C(F)(F)F)nn3C)c2)ccc1Cl)C1(C#N)CC1 [Compound 11, 2-chloro-N-(1-cyanocyclopropyl)-5-[1-[4-(difluoromethoxy)-2-methyl-5-(1,1,2,2,2-pentafluoroethyl)pyrazol-3-yl]pyrazol-4-yl]-N-isobutyl-benzamide]
≥ 80%: [1]; [8] | [2]; [9] | [3]; [10] | [4]; [11] | [5]; [12] | [7]; [14]

Cn1nc(C(F)(F)C(F)(F)F)c(OC(F)F)c1-n1cc(-c2ccc(Cl)c(C(=O)N(CC(F)(F)F)C3(C#N)CC3)c2)cn1 [Compound 10, 2-chloro-N-(1-cyanocyclopropyl)-5-[1-[4-(difluoromethoxy)-2-methyl-5-(1,1,2,2,2-pentafluoroethyl)pyrazol-3-yl]pyrazol-4-yl]-N-(2,2,2-trifluoroethyl)benzamide]
≥ 80%: [1]; [8] | [2]; [9] | [3]; [10] | [5]; [12] | [7]; [14]

CC(=O)N(C(=O)c1cc(-c2cnn(-c3c(OC(F)F)c(C(F)(F)C(F)(F)F)nn3C)c2)ccc1Cl)C1(C#N)CC1 [Compound 8, N-acetyl-2-chloro-N-(1-cyanocyclopropyl)-5-[1-[4-(difluoromethoxy)-2-methyl-5-(1,1,2,2,2-pentafluoroethyl)pyrazol-3-yl]pyrazol-4-yl]benzamide]
≥ 80%: [1]; [8] | [3]; [10] | [4]; [11] | [5]; [12] | [6]; [13] | [7]; [14]

COC(=O)N(C(=O)c1cc(-c2cnn(-c3c(OC(F)F)c(C(F)(F)C(F)(F)F)nn3C)c2)ccc1Cl)C1(C#N)CC1 [Compound 7, methyl N-[2-chloro-5-[1-[4-(difluoromethoxy)-2-methyl-5-(1,1,2,2,2-pentafluoroethyl)pyrazol-3-yl]pyrazol-4-yl]benzoyl]-N-(1-cyanocyclopropyl)carbamate]
≥ 80%: [1] | [3] | [4]; in Glycine max | [5] | [6] | [7]
